Laboratory results reported in patent US10682370B2, “Topical antiviral composition containing a local anesthetic and method of making the same” (priority 2013, dated 2020).
Where a name gives a salt, the structure may show the parent alone.

Experiments:
[1] = tested on: HSV-1; settings: in vitro; cited from earlier work
[2] = Accelerated stability of sorivudine/lidocaine cream formulas stored in 40° C./75% RH; assay type: physicochemical
Excerpt: In the above Table 3, the six (6)-month accelerated stability assay data's for both formulations, i.e. Example 8 and Example 9 (containing BHT) were stable.

[3] = administered concurrently with 5-FU; cited from earlier work
[4] = acidic environment, accelerated test
[5] = neutral environment, 6 month accelerated test

Row | Structure (SMILES) | Selectivity ratio for the inhibitory activity against HSV-1 [1] | Change of assay (in words) [2, 4] | Change of assay (in words) [2, 5] | Toxicity on concurrent administration with 5-fluorouracil (5-FU) [3] | Assay of sorivudine remaining [2, 5]
1 | Nc1nc2c(ncn2COCCO)c(=O)[nH]1 [Acyclovir, acyclovir] | about 2000 | – | – | – | –
2 | CCN(CC)CC(=O)Nc1c(C)cccc1C [lidocaine HCl, 2-(diethylamino)-N-(2,6-dimethylphenyl)-acetamide] | – | no change | almost no change | – | –
3 | O=c1[nH]c(=O)n([C@@H]2O[C@H](CO)[C@@H](O)[C@@H]2O)cc1/C=C/Br [sorivudine] | – | no change | – | major toxicity (myelosuppression) | 66%
